Assay [1] concerns S. aureus. Put plainly: Effect of antibiotic on S. aureus blood culture headspace VC production (SIFT-MS SIMscan). The format is cell-based, Staphylococcus aureus. The settings on record: for Ammonia mean concentration / DMS mean concentration: S. aureus 6 h; for Aminoacetophenone mean concentration / Ethanol mean concentration / Formaldehyde mean concentration: S. aureus 22 h; for Inhibition of aminoacetophenone, ethanol and formaldehyde: S. aureus 22 hours; for Effect on production of ammonia and dimethylsulfide by S. aureus: six hours, flucloxacillin above and below its MIC. The text has this: (§1) In one form of the method headspace atmospheres are introduced above conventional Biomerieux BacT/ALERT® aerobic or anaerobic blood cultures at a controlled rate into the flow tube precursor ion stream. The count rates of the resulting product ions are then to be determined by a “downstream” quadrupole and particle multiplier detector. Operating in full scan mode, the detector quadrupole is scanned over a predetermined m/z range to obtain a spectrum of product ions. In selected ion mode (SIMscan) the count rate of selected product ions is determined as the downstream […] is switched to and remains on selected m/zs.
(§2) Standard Biomerieux (Durham, N.C., USA) BacT/ALERT® SA, FA and SN disposable, plastic culture bottles containing 40 ml of culture medium were used throughout the experiments. 9 ml of healthy, uninfected human blood and 1 ml aliquots of antibiotics prepared in sterile water were added (in the relevant experiments) as required to each bottle prior to the addition of 1 ml of bacterial species suspended in sterile physiological saline.
(§3) SIFT-MS mass scan studies comparing 24 hour BacT/ALERT®SA blood culture headspace VCs with medium+blood controls identified a test panel of SIM VC analytes suitable for the five bacterial species tested. These bacterial metabolites included acetaldehyde, acetic acid, acetone, 2-aminoacetophenone, ammonia, dimethyldisulfide (DMDS), dimethylsulfide (DMS), formaldehyde, ethanol, hydrogen sulfide, indole, methanethiol, pentanols and propanol. […] absolute concentration measurements in parts per billion (ppb v/v) were integrated, averaged and recorded separately for acetaldehyde, acetic acid, ethanol, acetone, ammonia, hydrogen sulfide, DMS and DMDS during each 30 second SIMscan for each triplicate culture of the five test species after incubation in BacT/ALERT aerobic media. The results are recorded in Table 1 (below).
(§4) Approximately 10^3 CFU E. coli or S. aureus were inoculated into Biomerieux BacT/ALERT® SA bottles including 9 ml of fresh uninfected blood. Each bacterial species was incubated in triplicate either alone or in the presence of antibiotics above or below their predetermined minimal inhibitory concentrations (MIC).
(§5) Gentamicin was added to E. coli cultures at either 2 μg/ml or 0.05 μg/ml (MIC 0.25-1 μg/m)l. Flucloxacillin was added to S. aureus cultures at 2 μg/ml or 0.05 μg/ml (MIC 0.12-0.5 μg/ml).
(§6) The mean, minima and maxima integrated headspace analyte concentration measurements obtained from E. coli and S. aureus cultures are compared in Tables 8 and 9.

Assay [2] relates to S. aureus. The assay is described as follows: Predetermined minimal inhibitory concentration (MIC) for S. aureus. The settings on record: Staphylococcus aureus. The format is cell-based.
Assay [3] deals with E. coli. Put plainly: Predetermined minimal inhibitory concentration (MIC) for E. coli. The format is cell-based, Escherichia coli.
Assay [4] has as its system E. coli. The assay is described as follows: Effect of antibiotic on E. coli blood culture headspace VC production (SIFT-MS SIMscan). The format is cell-based, Escherichia coli.
Text: as §1, §2, §3, §4, §5, §6

[5] abbreviates: flucloxacillin <MIC (0.05 μg/ml).
[6] abbreviates: E. coli 6 h, gentamicin <MIC (0.05 μg/ml).
Setting [7] is: E. coli 6 h, gentamicin >MIC (2 μg/ml).
Setting [8] is: E. coli 22 h, gentamicin <MIC (0.05 μg/ml).
[9] abbreviates: E. coli 22 h, gentamicin >MIC (2 μg/ml).

Converted amounts (≈) assume the structure as drawn.

The record followed here is patent publication US20080261263A1, “In Vitro Evaluation of Micro-Organisms and Their Antimicrobial Agent Susceptibilities” (SYFT Technologies Limited, priority 2005, published 2008).

On to `Cc1onc(-c2c(F)cccc2Cl)c1C(=O)N[C@@H]1C(=O)N2[C@@H]1SC(C)(C)[C@@H]2C(=O)O` [Flucloxacillin], for which, in the assay with S. aureus [1] (setting [5]), the Ammonia mean concentration is recorded as 40 ppb, the DMS mean concentration is reported as 30 ppb, the Aminoacetophenone mean concentration worked out at 200 ppb and the Ethanol mean concentration is on record as 7500 ppb. This molecule showed a Formaldehyde mean concentration in the assay on S. aureus [1] (setting [5]) of 60 ppb. In the assay with S. aureus [1] (flucloxacillin >MIC (2 μg/ml)), this molecule came in with an Ammonia mean concentration of 50 ppb, a DMS mean concentration of 10 ppb, an Aminoacetophenone mean concentration of 60 ppb and an Ethanol mean concentration of 1900 ppb. In the assay on S. aureus [1] (flucloxacillin >MIC (2 μg/ml)), this molecule had a Formaldehyde mean concentration of 20 ppb. Further, the “Inhibition of aminoacetophenone, ethanol and formaldehyde” value in the assay on S. aureus [1] (flucloxacillin above its MIC, p<0.01) was “notable”. In the assay on S. aureus [1] (lower flucloxacillin concentration (below MIC)), the “Inhibition of aminoacetophenone, ethanol and formaldehyde” value is on record as “not inhibitory”. Besides, in the assay with S. aureus [1], the “Effect on production of ammonia and dimethylsulfide by S. aureus” value is listed as “significantly reduced”. The “Effect on production of ammonia and dimethylsulfide by S. aureus” value in the assay on S. aureus [1] (listed as flucloxacillin) is “inhibited to uninoculated, antibiotic-containing control levels”. Further, in the assay on S. aureus [2], the minimal inhibitory concentration (MIC) (usually the lowest concentration that inhibits growth of the organism) was 0.12 to 0.5 µg/mL (≈ 0.264 to 1.1 µM).
Molecule Gentamicin came in with an MIC against E. coli [3] of 0.25 to 1 µg/mL. In the assay on E. coli [4] (setting [6]), the “Hydrogen sulfide mean concentration” value came to 0 ppb and the Pentanols mean concentration was determined as 120 ppb. For the same molecule, in the assay on E. coli [4] (setting [7]), the “Hydrogen sulfide mean concentration” value was 0 ppb and the Pentanols mean concentration is 90 ppb. In addition, in the assay with E. coli [4] (setting [8]), the Acetaldehyde mean concentration was determined as 3300 ppb, the “Acetic acid mean concentration” value worked out at 1950 ppb, the Aminoacetophenone mean concentration turned out to be 900 ppb and the DMDS mean concentration was 380 ppb. Moreover, in the assay with E. coli [4] (setting [8]), the DMS mean concentration worked out at 30 ppb, the Ethanol mean concentration is 42000 ppb, the Formaldehyde mean concentration is recorded as 140 ppb and the “Hydrogen sulfide mean concentration” value is given as 1030 ppb. For the same molecule, in the assay on E. coli [4] (setting [8]), the Indole mean concentration came out at 210 ppb, the Methanethiol mean concentration is on record as 1400 ppb, the Pentanols mean concentration worked out at 220 ppb and the Propanol mean concentration was 5800 ppb. Moreover, in the assay with E. coli [4] (setting [9]), the Acetaldehyde mean concentration is given as 2700 ppb, the “Acetic acid mean concentration” value is reported as 600 ppb, the Aminoacetophenone mean concentration is listed as 280 ppb and the DMDS mean concentration is recorded as 190 ppb. In addition, in the assay with E. coli [4] (setting [9]), the DMS mean concentration came out at 30 ppb, the Ethanol mean concentration worked out at 16000 ppb, the Formaldehyde mean concentration is 110 ppb and the “Hydrogen sulfide mean concentration” value worked out at 6 ppb. In addition, in the assay with E. coli [4] (setting [9]), the Indole mean concentration is on record as 110 ppb, the Methanethiol mean concentration stood at 150 ppb, the Pentanols mean concentration is 90 ppb and the Propanol mean concentration was found to be 1700 ppb. For the same molecule, the “Effect on production of all headspace VCs (except formaldehyde)” value with E. coli [4] (E. coli 22 hours, gentamicin above its MIC, p<0.005) was “significantly inhibited”. Moreover, the “Effect on most analytes (except hydrogen sulfide and methanethiol)” value in the assay on E. coli [4] (E. coli 22 hours, gentamicin below its MIC, p<0.01) was “Significant (p<0.01) reductions”. Besides, in the assay on E. coli [4] (six hours, both gentamicin concentrations), the “Effect on production of hydrogen sulfide by E. coli” value is on record as “eliminated”.
